The results in this text go back to patent US20250066370A1, “BICYCLIC TRIAZINE DERIVATIVES FOR THE TREATMENT OF CANCER” (DEUTSCHES KREBSFORSCHUNGSZENTRUM, priority 2022, published 2025).

Where only a bound is given, the exact number is not on record here.

Test [1] has as its target CDK12/CyclinK (Homo sapiens (Human), UniProt Q9NYV4). Briefly: CDK12/CycK high ATP kinase assay (TR-FRET). Conditions: for IC50: 2 mM ATP (high ATP), median, read-out: CDK12/CyclinK, 2 mM ATP (high ATP), IC50 - [mol/l] (median); for (IC50 CDK12 high ATP) to (Degradation DC50 CDK12) ratio: IC50 CDK12 at 2 mM ATP divided by CDK12 degradation DC50 (IF, CAL-120). Format: biochemical. The method, then:
In the context of the present invention, the term “IC50 CDK12 hATP” refers to the IC50 values obtained according to the assay described in this section (2.2) herein below, i.e. the IC50 values for the inhibition of CDK12 at high (2 mM) ATP.
CDK12/CycK-inhibitory activity of compounds of the present invention at 2 millimol/L adenosine-tri-phosphate (ATP) was quantified employing the TR-FRET (TR-FRET=Time Resolved Fluorescence Energy Transfer) based CDK12/CycK activity inhibition assay as described in the following paragraphs.
A complex of human recombinant CDK12 and human recombinant CycK (both N-terminally His-tagged, expression and purification as described above) was used as enzyme. As substrate for the kinase reaction biotinylated peptide biotin-Ahx-KFELLPTPPLSPSRRSGL (C-terminus in amid form) was used which can be purchased e.g. form the company Biosyntan (Berlin-Buch, Germany).
For the assay 50 nanoL of a 100 fold concentrated solution of the test compound in DMSO was pipetted into either a black low volume 384 well microtiter plate or a black 1536 well microtiter plate (both Greiner Bio-One, Frickenhausen, Germany), 2 microL of a solution of CDK12/CycK in aqueous assay buffer [25 millimol/L HEPES pH 7.5, 20 millimol/L MgCl2, 5 millimol/L β-glycerophosphate, 2 millimol/L EGTA, 1.0 millimol/L dithiothreitol, 0.01% (v/v) Nonidet-P40 (Sigma), 0.01% (w/v) bovine serum albumin] were added and the mixture was incubated for 15 min at 22° C. to allow pre-binding of the test compounds to the enzyme before the start of the kinase reaction. Then the kinase reaction was started by the addition of 3 microL of a solution ATP (3.33 millimol/L=>final conc. in the 5 microL assay volume is 2 millimol/L) and substrate (1.67 micromol/L=>final conc. in the 5 microL assay volume is 1 micromol/L) in assay buffer and the resulting mixture was incubated for a reaction time of 60 min at 22° C. The concentration of CDK12/CycK was adjusted depending of the activity of the enzyme lot and was chosen appropriate to have the assay in the linear range, typical concentrations were about 0.75 nanomol/L. The reaction was stopped by the addition of 3 microL of a solution of TR-FRET detection reagents (125 nanomol/L streptavidine-XL665 [Cisbio Bioassays, Codolet, France] and 0.67 nanomol/L anti-Phospho-c-Myc (Ser 62) (E1J4K)-antibody from Cell Signalling [#13748] and 2 nanomol/L LANCE EU-W1024 labeled anti-rabbit IgG antibody [Perkin-Elmer, product no. 0083]) in an aqueous EDTA-solution (133 millimol/L EDTA, 0.27% (w/v) bovine serum albumin in 66.7 millimol/L HEPES pH 7.5).
The resulting mixture was incubated 1 h at 22° C. to allow the formation of complex between the phosphorylated biotinylated peptide and the detection reagents. Subsequently the amount of phosphorylated substrate was evaluated by measurement of the resonance energy transfer from the Eu-chelate to the streptavidine-XL. Therefore, the fluorescence emissions at 620 nm and 665 nm after excitation at 350 nm was measured in a TR-FRET reader, e.g. a Pherastar FS (BMG Labtechnologies, Offenburg, Germany) or a Viewlux (Perkin-Elmer). The ratio of the emissions at 665 nm and at […] was taken as the measure for the amount of phosphorylated substrate. The data were normalised (enzyme reaction without inhibitor=0% inhibition, all other assay components but no enzyme=100% inhibition).

Test [2] deals with MDA-MB-231, human breast cancer cells. The test is described as follows: Proliferation assay MDA-MB-231 (crystal violet). The conditions noted are these: 96 h, MDA-MB-231 parental cells, 4 days, median, read-out: Prolif-MDA MB-231, IC50 - [mol/l] (median). The class given is cell-based. As for the experimental part: Human tumour cells were originally obtained from the American Type Culture Collection (ATCC), or from the Deutsche Sammlung von Mikroorganismen und Zellkulturen (DSMZ, German Collection of Microorganisms and Cell Cultures). Cultivated tumour cells (CAL-120, human breast adenocarcinoma cells, DSMZ ACC-459; MDA-MB-231, human breast cancer cells, ATCC HTB-26) were plated at a density of 4,000 cells/well in a 96-well multitier plate in 200 microL of their respective growth medium supplemented 10% fetal calf serum. After 24 hours, the cells of one plate (zero-point plate) were stained with crystal violet (see below), while the medium of the other plates was supplemented with the test substances in various concentrations (0 micromol/L, as well as in the range of 0.01-10 micromol/L; the final concentration of the solvent dimethyl sulfoxide was adjusted to 0.1%) using a Tecan HP D300 Digital Dispenser. The cells were incubated for 4 days in the presence of test substances. Cell proliferation was determined by staining the cells with crystal violet: the cells were fixed by adding 20 microL/measuring point of an 11% glutaric aldehyde solution for 15 minutes at room temperature. After three washing cycles of the fixed cells with water, the plates were dried at room temperature. The cells were stained by adding 100 microL/measuring point of a 0.1% crystal violet solution (pH 3.0). After three washing cycles of the stained cells with water, the plates were dried at room temperature. The dye was dissolved by adding 100 microL/measuring point of a 10% acetic acid solution. The extinction was determined by photometry at a wavelength of 595 nm. The change of cell number, in percent, was calculated by normalization of the measured values to the extinction values of the zero-point plate (=0%) and the extinction of the untreated (0 μM) cells (=100%). The IC50 values (inhibitory concentration at 50% of maximal effect) were determined by means of a 4 parameter fit.

CDK12/CyclinK, sequence (Q9NYV4 other isoform, or with tags, fused parts or gaps): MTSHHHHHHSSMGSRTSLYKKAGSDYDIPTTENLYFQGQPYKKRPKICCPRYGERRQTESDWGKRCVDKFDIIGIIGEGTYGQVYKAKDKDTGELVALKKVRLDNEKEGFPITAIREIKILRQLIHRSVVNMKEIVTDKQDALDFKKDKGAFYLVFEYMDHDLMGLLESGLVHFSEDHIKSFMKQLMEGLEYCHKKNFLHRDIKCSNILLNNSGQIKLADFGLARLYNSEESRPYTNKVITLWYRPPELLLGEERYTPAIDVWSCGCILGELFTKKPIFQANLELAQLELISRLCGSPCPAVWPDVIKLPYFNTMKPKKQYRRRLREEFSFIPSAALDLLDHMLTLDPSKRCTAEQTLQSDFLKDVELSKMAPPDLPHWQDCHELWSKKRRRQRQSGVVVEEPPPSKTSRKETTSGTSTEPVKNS
CDK12/CyclinK, sequence (O75909 other isoform, or with tags, fused parts or gaps partner): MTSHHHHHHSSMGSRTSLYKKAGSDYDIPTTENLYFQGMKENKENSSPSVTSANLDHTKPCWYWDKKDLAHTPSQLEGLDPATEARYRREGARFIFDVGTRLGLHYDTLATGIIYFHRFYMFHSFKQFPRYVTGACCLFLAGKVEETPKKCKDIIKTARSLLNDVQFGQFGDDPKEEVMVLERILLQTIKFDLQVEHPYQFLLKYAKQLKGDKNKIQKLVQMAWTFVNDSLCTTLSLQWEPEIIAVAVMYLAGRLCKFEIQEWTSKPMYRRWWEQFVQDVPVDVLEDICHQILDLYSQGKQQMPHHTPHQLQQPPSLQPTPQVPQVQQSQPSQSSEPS

Turning to `FC(F)(F)c1ccc(-c2nnc(CNc3nc(N4CCOCC4)nc4c(Br)cnn34)[nH]2)cc1` [Example 1, 8-bromo-2-(morpholin-4-yl)-N-({5-[4-(trifluoromethyl)phenyl]-4H-1,2,4-triazol-3-yl}methyl)pyrazolo[1,5-a][1,3,5]triazin-4-amine], in test [1], the IC50 stood at 1830 nM and the “(IC50 CDK12 high ATP) to (Degradation DC50 CDK12) ratio” value was determined as 0.77.
For the compound `FC(F)(F)Oc1ccc(-c2nnc(CNc3nc(N4CCOCC4)nc4c(Br)cnn34)[nH]2)cc1` [Example 2, 8-bromo-2-(morpholin-4-yl)-N-({5-[4-(trifluoromethoxy)phenyl]-4H-1,2,4-triazol-3-yl}methyl)pyrazolo[1,5-a][1,3,5]triazin-4-amine], in test [1], the IC50 is 750 nM and the “(IC50 CDK12 high ATP) to (Degradation DC50 CDK12) ratio” value is on record as under 0.27.
Take `FC(F)(F)c1ccc(-c2cnc(CNc3nc(N4CCOCC4)nc4c(Br)cnn34)[nH]2)cc1` [Example 3, 8-bromo-2-(morpholin-4-yl)-N-({5-[4-(trifluoromethyl)phenyl]-1H-imidazol-2-yl}methyl)pyrazolo[1,5-a][1,3,5]triazin-4-amine]: in test [1], the IC50 worked out at 267 nM and the “(IC50 CDK12 high ATP) to (Degradation DC50 CDK12) ratio” value is under 0.09.
Turning to `FC(F)(F)Oc1ccc(-c2cnc(CNc3nc(N4CCOCC4)nc4c(Br)cnn34)[nH]2)cc1` [Example 4, 8-bromo-2-(morpholin-4-yl)-N-({5-[4-(trifluoromethoxy)phenyl]-1H-imidazol-2-yl}methyl)pyrazolo[1,5-a][1,3,5]triazin-4-amine], in test [1], the IC50 was 34.8 nM and the “(IC50 CDK12 high ATP) to (Degradation DC50 CDK12) ratio” value is recorded as under 0.03. In addition, the IC50 in test [2] came out at 123 nM.
As to `FC(F)(F)Oc1ccc(-c2nnc(CNc3nc(N4CCOCC4)nc4c(C(F)(F)F)cnn34)[nH]2)cc1` [Example 5, 2-(morpholin-4-yl)-N-({5-[4-(trifluoromethoxy)phenyl]-4H-1,2,4-triazol-3-yl}methyl)-8-(trifluoromethyl)pyrazolo[1,5-a][1,3,5]triazin-4-amine], the values for the IC50 in test [1] and in test [2] were 262 nM and 319 nM, respectively. Moreover, in test [1], the “(IC50 CDK12 high ATP) to (Degradation DC50 CDK12) ratio” value is 0.26.
As to `FC(F)(F)c1ccc(-c2nnc(CNc3nc(N4CCOCC4)nc4c(C(F)(F)F)cnn34)[nH]2)cc1` [Example 6, 2-(morpholin-4-yl)-8-(trifluoromethyl)-N-({5-[4-(trifluoromethyl)phenyl]-4H-1,2,4-triazol-3-yl}methyl)pyrazolo[1,5-a][1,3,5]triazin-4-amine], in test [1], the IC50 turned out to be 736 nM and the “(IC50 CDK12 high ATP) to (Degradation DC50 CDK12) ratio” value is 0.74. The IC50 in test [2] stood at 777 nM.
On to `FC(F)(F)c1ccc(-c2cnc(CNc3nc(N4CCOCC4)nn4c(C(F)(F)F)cnc34)[nH]2)cc1` [Example 7, 2-(morpholin-4-yl)-7-(trifluoromethyl)-N-({5-[4-(trifluoromethyl)phenyl]-1H-imidazol-2-yl}methyl)imidazo[2,1-f][1,2,4]triazin-4-amine], for which the IC50 worked out at 26.3 nM in test [1] and 90.5 nM in test [2]. In addition, the “(IC50 CDK12 high ATP) to (Degradation DC50 CDK12) ratio” value in test [1] is 0.04.
As to `FC(F)(F)Oc1ccc(-c2cnc(CNc3nc(N4CCOCC4)nn4c(C(F)(F)F)cnc34)[nH]2)cc1` [Example 8, 2-(morpholin-4-yl)-N-({5-[4-(trifluoromethoxy)phenyl]-1H-imidazol-2-yl}methyl)-7-(trifluoromethyl)imidazo[2,1-f][1,2,4]triazin-4-amine], in test [1], the IC50 came out at 8.34 nM and the “(IC50 CDK12 high ATP) to (Degradation DC50 CDK12) ratio” value was 9.34E−03. Further, in test [2], the IC50 was 114 nM.
Turning to `FC(F)(F)c1ccc(-c2cnc(CNc3nc(N4CCOCC4)nc4c(C(F)(F)F)cnn34)[nH]2)cc1` [Example 9, 2-(morpholin-4-yl)-8-(trifluoromethyl)-N-({5-[4-(trifluoromethyl)phenyl]-1H-imidazol-2-yl}methyl)pyrazolo[1,5-a][1,3,5]triazin-4-amine], in test [1], the IC50 came out at 9.21 nM and the “(IC50 CDK12 high ATP) to (Degradation DC50 CDK12) ratio” value turned out to be 9.69E−03. Moreover, the IC50 in test [2] is 190 nM.
`FC(F)(F)Oc1ccc(-c2cnc(CNc3nc(N4CCOCC4)nc4c(C(F)(F)F)cnn34)[nH]2)cc1` [Example 10, 2-(morpholin-4-yl)-N-({5-[4-(trifluoromethoxy)phenyl]-1H-imidazol-2-yl}methyl)-8-(trifluoromethyl)pyrazolo[1,5-a][1,3,5]triazin-4-amine]: in test [1], the IC50 stood at 7.59 nM and the “(IC50 CDK12 high ATP) to (Degradation DC50 CDK12) ratio” value is given as under 7.59E−3. Besides, the IC50 in test [2] worked out at 123 nM.
Take `FC(F)(F)c1ccc(-c2nnc(CNc3nc(N4CCOCC4)nn4c(C(F)(F)F)cnc34)[nH]2)cc1` [Example 11, 2-(morpholin-4-yl)-7-(trifluoromethyl)-N-({5-[4-(trifluoromethyl)phenyl]-4H-1,2,4-triazol-3-yl}methyl)imidazo[2,1-f][1,2,4]triazin-4-amine]: the IC50 was 32.3 nM in test [1] and 434 nM in test [2]. The “(IC50 CDK12 high ATP) to (Degradation DC50 CDK12) ratio” value in test [1] was 0.04.
For `FC(F)(F)Oc1ccc(-c2nnc(CNc3nc(N4CCOCC4)nn4c(C(F)(F)F)cnc34)[nH]2)cc1` [Example 14, 2-(morpholin-4-yl)-N-({5-[4-(trifluoromethoxy)phenyl]-4H-1,2,4-triazol-3-yl}methyl)-7-(trifluoromethyl)imidazo[2,1-f][1,2,4]triazin-4-amine], in test [2], the IC50 worked out at 319 nM.
In the case of `COc1ccc(-c2nnc(CNc3nc(N4CCOCC4)nn4c(C(F)(F)F)cnc34)[nH]2)cn1` [Example 18, N-{[5-(6-methoxypyridin-3-yl)-4H-1,2,4-triazol-3-yl]methyl}-2-(morpholin-4-yl)-7-(trifluoromethyl)imidazo[2,1-f][1,2,4]triazin-4-amine], the IC50 in test [2] was determined as 72.1 nM.
As to `COc1ccc(-c2cnc(CNc3nc(N4CCOCC4)nc4c(C(F)(F)F)cnn34)[nH]2)cn1` [Example 21, N-{[5-(6-methoxypyridin-3-yl)-1H-imidazol-2-yl]methyl}-2-(morpholin-4-yl)-8-(trifluoromethyl)pyrazolo[1,5-a][1,3,5]triazin-4-amine], the IC50 in test [2] worked out at 98.3 nM.
Regarding `FC(F)(F)c1ccc(-c2cnc(CNc3nc(N4CCOCC4)nc4c(C(F)(F)F)cnn34)[nH]2)cn1` [Example 24, 2-(morpholin-4-yl)-8-(trifluoromethyl)-N-({5-[6-(trifluoromethyl)pyridin-3-yl]-1H-imidazol-2-yl}methyl)pyrazolo[1,5-a][1,3,5]triazin-4-amine], the IC50 in test [2] amounted to 21.7 nM.
